From patent publication US20120142766A1, “SUBSTITUTED 1,3-DIOXANES AND THEIR USES” (EVOLVA SA, priority 2007, published 2012)
pIC50, pKi: −log10 of the molar value. Blank lines part the entries; values can stand above or below the compound they belong to.

Columns and labels:
[1] = system: KKA^y mice; experiment: KKAy mice on high fat diet, 14-day oral gavage BID; format: in vivo, mouse
Experimental: 52 male KKA^y mice are obtained commercially (e.g., from Clea Japan) at an age of 6 weeks and put on a high fat diet upon arrival. Individual mice were housed in IVC Type II cages during both the acclimatization and the experimental phase. Both food (high fat diet) and water are supplied ad libitum.
1 animal per cage. […] Lights on at 06:00 a.m. Temperature: 21-25° C. Relative humidity target range: 55-60%.
Mice were randomized into treatment groups according to their 4-h fasting blood glucose.
4 hours after the last administration, non-fasting conditions.
Gamma irradiated high fat diet is commercially available (e.g., Research Diets, Inc. New Brunswick, N.J. (Product # D12266BI)).
Blood is collected into heparin containing glass capillaries which are subsequently centrifuged in a “Haematokrit 24” centrifuge (Hettich) at 15′200×g for 10 minutes at room temperature to obtain the hematocrit value.
The following serum parameters are determined on a COBAS INTEGRA 800 auto analyzer (Roche Diagnostics, Switzerland) using the reagents and protocols provided by the supplier.
All measurements are made on Day 14 of administration, except for the food intake and body weight measurements that are made on Day 12.

[2] = system: arterial thrombosis in a mouse model; experiment: Arterial thrombosis mouse model (FeCl3 on femoral artery); format: in vivo
Experimental: The solutions are diluted 3.3-fold in saline and 100 μl/25 g is injected. Thus, the above-mentioned doses of 100 and 300 mg/kg of compound correspond to final doses of 30 and 100 mg/kg.
During the experiments, a soluble salt of the drug is provided (potassium salt of compound C), diluted in saline. Of this formulation, 100 μl/25 g is injected i.v. in the tail vein (dose of 100 mg/kg).
Solutions are injected (100 μl/25 g body weight) i.v. in the tail vein over 2 min to obtain doses of each compound of 30 mg/kg and 100 mg/kg. Aspirin is given the same way at a dose of 200 mg/kg. Clopidogrel is administered by oral gavage at a dose of 20 mg/kg at 6-7 hours prior to the experiment. The animals assigned to each group are matched for body weight. Mice are typically 8-10 weeks old males and are in a 100% Swiss genetic background.
The flow in each image is expressed as a percentage of that at the contralateral side, and data are averaged for all 120 images to determine total flow. The same analysis is performed for 10 min intervals (which gives essentially the same information as the area under the curve). […] Flow before treatment is recorded as 100%, and that in occluded arteries as 0%. At the end of the experiment, blood is collected on 0.01M citrate by heart puncture for determination of blood cell counts. Plasma is prepared by centrifugation and stored at −20° C. for determination of drug levels.
Statistical analysis for differences between two groups is performed by non-parametric Student t-test. Occlusion times >30 min were considered equal to 30 min for statistical analysis. Significance is set at p<0.05.

[3] = molecular target: T1, Thromboxane synthase (Homo sapiens, UniProt P24557); experiment: Human platelet thromboxane synthase assay; format: biochemical
T1 construct: Human Platelet Thromboxane Synthase Assay; from tissue; host or cells: human platelets
T1 sequence (P24557 1-533): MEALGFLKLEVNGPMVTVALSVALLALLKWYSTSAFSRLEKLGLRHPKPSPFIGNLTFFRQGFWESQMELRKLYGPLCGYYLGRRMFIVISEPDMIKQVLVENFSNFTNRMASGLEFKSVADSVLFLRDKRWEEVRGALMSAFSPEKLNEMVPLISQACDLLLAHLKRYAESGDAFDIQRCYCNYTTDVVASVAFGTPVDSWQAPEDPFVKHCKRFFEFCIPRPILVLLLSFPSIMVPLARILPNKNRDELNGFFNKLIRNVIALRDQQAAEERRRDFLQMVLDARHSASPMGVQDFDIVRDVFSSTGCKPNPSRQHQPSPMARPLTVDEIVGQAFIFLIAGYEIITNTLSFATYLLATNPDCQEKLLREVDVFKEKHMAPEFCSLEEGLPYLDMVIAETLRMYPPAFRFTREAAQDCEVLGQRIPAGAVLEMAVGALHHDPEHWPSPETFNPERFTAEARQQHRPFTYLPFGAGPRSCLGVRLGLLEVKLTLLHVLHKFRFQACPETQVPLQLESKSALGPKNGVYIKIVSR
Experimental: The compounds were tested for thromboxane synthase inhibition essentially as described by Borsch-Haubold A G, Pasquet S, Watson S P. (1998) Direct inhibition of cyclooxygenase-1 and -2 by the kinase inhibitors SB 203580 and PD 98059. […] 1. Imidazole derivatives. J Med. Chem. (10):1139-48 according to the following:
Pre-incubation time, temp: 15 minutes at 25° C. Incubation time, temp: 3 minutes at 25° C.
Incubation Buffer: 10 mM Tris-HCl, pH 7.4
Quantification Method: EIA quantification of TxB2

[4] = molecular target: T2, Human Recombinant (E. coli) PPARgamma (Homo sapiens, UniProt P37231); experiment: PPAR gamma binding assay ([3H]-rosiglitazone); details: [3H]-rosiglitazone 10 nM; read-out: PPARγ binding IC50
T2 construct: host or cells: E. coli
T2 sequence (P37231 1-505): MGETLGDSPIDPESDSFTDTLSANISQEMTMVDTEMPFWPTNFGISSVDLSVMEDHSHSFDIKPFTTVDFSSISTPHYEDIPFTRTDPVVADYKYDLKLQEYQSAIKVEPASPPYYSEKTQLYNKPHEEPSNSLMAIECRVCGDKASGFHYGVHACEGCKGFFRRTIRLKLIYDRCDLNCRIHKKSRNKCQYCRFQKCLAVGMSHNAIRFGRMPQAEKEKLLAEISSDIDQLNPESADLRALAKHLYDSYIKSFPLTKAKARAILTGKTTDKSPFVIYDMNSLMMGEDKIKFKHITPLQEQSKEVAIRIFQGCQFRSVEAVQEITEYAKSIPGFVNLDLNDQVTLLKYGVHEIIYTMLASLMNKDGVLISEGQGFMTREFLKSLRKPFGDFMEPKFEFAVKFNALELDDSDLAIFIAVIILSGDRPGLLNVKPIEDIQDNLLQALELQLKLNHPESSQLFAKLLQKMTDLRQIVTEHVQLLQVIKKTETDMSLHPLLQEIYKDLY
Experimental: Incubation: 120 min. at 4° C.
The results are expressed as a percent of control specific binding ((measured specific binding/control specific binding)×100) obtained in the presence of the test compounds. The IC50 values (concentration causing a half-maximal inhibition of control specific binding) and Hill coefficients (nil) were determined by non-linear regression analysis of the competition curves generated with mean replicate values using Hill equation curve fitting (Y=D+[(A−D)/(1+(C/C50)nH)], where Y=specific binding, D=minimum specific binding, A=maximum specific binding, C=compound concentration, C50=IC50, and nH=slope factor). This analysis was performed using a software developed at Cerep (Hill software) and validated by comparison with data generated by the commercial software SigmaPlot® 4.0 for Windows® (© 1997 by SPSS Inc.). The inhibition constants (Ki) were calculated using the Cheng Prusoff equation (Ki=IC50/(1+(L/KD)), where L=concentration of radioligand in the assay, and KD=affinity of the radioligand for the receptor).

[5] = system: New Zealand Rabbit platelet rich plasma; experiment: TP receptor platelet aggregation, rabbit (U-46619-induced); format: cell-based
Experimental: Thrombosis Research 33:277-288.
TP Receptor Platelet Aggregation—Rabbit:
New Zealand Rabbit (2.75±0.25 kg) platelet rich plasma
Assay: Inhibition of 1.5 μM U-46619-induced platelet aggregation Incubation Time, Temp: 5 minutes at 37° C. Incubation Buffer Trisodium Citrate (0.13 M)-treated platelet rich plasma
Time of Assessment: 5 minutes
Quantification Method Optical Density Change

[6] = molecular target: T3, Thromboxane receptor (TP) (Homo sapiens, UniProt P21731); experiment: TP receptor radioligand binding ([3H] SQ-29548); details: Human recombinant HEK-293 cells
T3 construct: expressed in transfected cells; host or cells: HEK-293
T3 sequence (P21731 1-343): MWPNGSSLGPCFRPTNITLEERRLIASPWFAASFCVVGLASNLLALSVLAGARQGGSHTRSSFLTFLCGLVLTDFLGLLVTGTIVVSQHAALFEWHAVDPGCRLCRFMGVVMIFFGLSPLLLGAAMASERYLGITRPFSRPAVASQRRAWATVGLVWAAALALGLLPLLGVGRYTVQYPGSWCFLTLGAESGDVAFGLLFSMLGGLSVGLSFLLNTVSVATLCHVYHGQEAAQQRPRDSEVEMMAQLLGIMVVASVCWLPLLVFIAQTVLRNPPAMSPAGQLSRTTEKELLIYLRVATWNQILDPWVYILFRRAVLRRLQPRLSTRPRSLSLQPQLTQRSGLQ
Experimental: The compounds were tested on radioligand binding assays for thromboxane receptor binding essentially as described by Hedberg et al. (1988) J. Pharmacol. Exp. Ther. 245:786-792 and Saussy et al. (1986) J. Biol. Chem. 261: 3025-3029 according to the following:
TP Receptor Radioligand Binding Studies:
Human recombinant HEK-293 cells,
Incubation Time, Temp: 30 minutes at 25° C.
Incubation Buffer: 50 mM Tris-HCl, pH 7.4, 154 mM NaCl
Non-Specific Ligand: 1 μM SQ-29548
The data were transformed to semi-log and then analysed using non-linear regression to a four-parameter dose-response curve Y=Bottom+(Top−Bottom)/(1+10̂((LogEC50−X)*HillSlope)) using the log(agonist) vs. response—Variable slope function of GraphPad Prism software (http://graphpad.com/help/prism5/prism5help.html?usitignonlinear_regression_step_by_s.htm).

[7] = 14-day BID, enoic acid 53 mg/kg, rosiglitazone 5 mg/kg, Compounds 3 and 13 dose not stated
[8] = Oryctolagus cuniculus, Platelet, 1.5 μM U-46619-induced
[9] = 5 mg/kg BID oral gavage, Day 12, mean ± S.E.M.
[10] = 5 mg/kg BID oral gavage, Day 14, mean ± S.E.M.

SMILES: O=C(O)CC/C=C\C[C@@H]1COC(c2ccc(Nc3ccccc3)cc2)O[C@@H]1c1ccccc1O (mixture of isomers) [Compound 3, (Z)-6-(4-(2-Hydroxyphenyl)-2-(4-(phenylamino)phenyl)-1,3-dioxan-5-yl)hex-4-enoic acid]
Body weight (in words) [1, 7]: do not alter body weight | FFA (in words) [1, 7]: decreases the FFA | HbA1c levels (in words) [1, 7]: decreased | Heart weight (in words) [1, 7]: no effect on heart weight

SMILES: CC(=O)Oc1ccccc1C(=O)O [Aspirin]
Occlusion time ([2]; 200 mg/kg i.v.): no effect on the occlusion time | Total blood flow ([2]; 200 mg/kg i.v.): no significant effect on the total blood flow

SMILES: COC(=O)[C@H](c1ccccc1Cl)N1CCc2sccc2C1 [Clopidogrel]
Total blood flow ([2]; 20 mg/kg oral gavage 6-7 hours prior): significantly improved total blood flow

SMILES: COc1ccccc1C1OC(c2ccccc2Cl)OCC1C/C=C\CCC(=O)O (stereo not shown) [Compound D, (Z)-6-(-2-(2-chlorophenyl)-4-(2-methoxyphenyl)-1,3-dioxan-5-yl)hex-4-enoic acid]
inhibition at 5 µM ([3]; 5 μM): 12% | pIC50 [4]: 4.68 | inhibition at 10 µM [5, 8]: 33% | inhibition at 10 µM [6]: 98%

More lines, main results first:

inhibition at 5 µM ([3]; 5 μM): 39% | pIC50 [4]: 5.68 | inhibition at 10 µM [6]: 100%
SMILES: O=C(O)CC/C=C\C[C@@H]1COC(c2ccccc2Oc2ccc(F)cc2)O[C@@H]1c1ccccc1O (stereo partly shown) [Compound 4]
inhibition at 10 µM [5, 8]: 100%

pIC50 [3]: 6.08 | Thromboxane synthase Human platelet Inhibition (%) at 5 μM ([3]; 5 μM): 76% | inhibition at 5 µM ([3]; 5 μM): 75% | Inhibition of thromboxane synthase (in words) ([3]; Table 2): inhibitors of thromboxane synthase | inhibition at 10 µM [6]: 102% | pIC50 ([6]; 5 nM [3H] SQ-29548): 7.96 | pKi ([6]; 5 nM [3H] SQ-29548): 8.14
SMILES: O=C(O)CC/C=C\C[C@@H]1COC(c2ccccc2-c2ccccc2)O[C@@H]1c1ccccc1O (stereo partly shown) [Compound 10]
Occlusion time ([2]; dose not given): prolongs the occlusion time | Total blood flow ([2]; dose not given): improves total blood flow | inhibition at 30 µM ([5]; Oryctolagus cuniculus, Platelet, 30 μM, 1.5 μM U-46619-induced): 100% | Inhibition of platelet aggregation (in words) ([5]; Table 2): potent inhibitors of platelet aggregation

pIC50 [3]: 5.00 | inhibition at 10 µM ([3]; 10 μM): 53%
SMILES: COc1ccc(C(=O)NCc2cccnc2)cc1C(=O)NCc1cccnc1 [Picotamide]
inhibition at 100 µM ([5]; Oryctolagus cuniculus, Platelet, 100 μM, 1.5 μM U-46619-induced): 36%

Food Intake [1, 9]: 4.5 ± 0.6 g/day | ALP [1, 10]: 26.0 ± 1.7 dU/L | Heart weight [1, 10]: 226.2 ± 6.9 mg | Hematocrit [1, 10]: 40.3 ± 1.5% | Heart weight (in words) [1, 7]: increased
SMILES: CN(CCOc1ccc(CC2SC(=O)NC2=O)cc1)c1ccccn1 (stereo not shown) [Rosiglitazone]
Body Weight [1, 9]: 49.5 ± 1.0 g | ALT [1, 10]: 8.9 ± 0.9 dU/L | AST [1, 10]: 10.1 ± 0.9 dU/L | FFA [1, 10]: 1.3 ± 0.1 mM | Fructosamine [1, 10]: 0.35 ± 0.03 mM | HDL [1, 10]: 3.6 ± 0.2 mM | HbA1C [1, 10]: 7.8 ± 0.4 % | Insulin [1, 10]: 17.9 ± 4.2 µg/L | Serum Glucose [1, 10]: 18.8 ± 2.2 mM | TG [1, 10]: 1.0 ± 0.2 mM | Total Cholesterol [1, 10]: 4.0 ± 0.4 mM | Body weight (in words) [1, 7]: increased
